Test results as given in patent US6737383B1, “Herbicidal oxadiazolidines” (priority 1999, dated 2004).

Assays:
[1] = system: wheat; experiment: Test B pre/postemergence wheat; assay type: in vivo, Triticum aestivum
Summary of the method: (§1)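 Test chemicals in a non-phytotoxic solvent mixture with surfactant were sprayed preemergence onto planted seeds and postemergence onto plants 2 to 18 cm tall (1- to 4-leaf stage). After twelve to sixteen days in a greenhouse, injury was visually rated against untreated controls from 0 (no effect) to 10 (complete control).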

[2] = system: bamyardgrass; experiment: Test B flood test barnyardgrass; assay type: in vivo, Echinochloa crus-galli; details: for Plant response rating, Barnyardgrass: scale 0 to 10, 0 is no effect, 10 is complete control; for Barnyardgrass plant response rating: scale of 0 to 10 where 0 is no effect and 10 is complete control
Summary of the method: (§2)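 Flood test on plants grown to the 2-leaf stage; treated plants kept in greenhouse twelve to sixteen days, then visually rated against controls on a 0 (no effect) to 10 (complete control) scale.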

[3] = system: rice; experiment: Test B flood test rice; assay type: in vivo, Oryza sativa
Summary of the method: as §2

[4] = system: smallflower flatsedge; experiment: Test B flood test smallflower flatsedge; assay type: in vivo, Cyperus difformis
Summary of the method: as §2

[5] = system: cocklebur; experiment: Test B pre/postemergence cocklebur; assay type: in vivo, Xanthium strumarium
Summary of the method: as §1

[6] = system: duck salad; experiment: Test B flood test duck salad; assay type: in vivo, Heteranthera limosa; details: for Plant response rating, Ducksalad: scale 0 to 10, 0 is no effect, 10 is complete control; for Ducksalad plant response rating: scale of 0 to 10 where 0 is no effect and 10 is complete control
Summary of the method: as §2

[7] = system: morningglory; experiment: Test B pre/postemergence morningglory; assay type: in vivo, Ipomoea hederacea
Summary of the method: as §1

[8] = system: wild oat; experiment: Test B pre/postemergence wild oat; assay type: in vivo, Avena fatua
Summary of the method: as §1

[9] = system: surinam grass; experiment: Test B pre/postemergence surinam grass; assay type: in vivo, Brachiaria decumbens
Summary of the method: as §1

[10] = system: crabgrass; experiment: Test B pre/postemergence crabgrass; assay type: in vivo, Digitaria sanguinalis
Summary of the method: as §1

[11] = system: blackgrass; experiment: Test B pre/postemergence blackgrass; assay type: in vivo, Alopecurus myosuroides
Summary of the method: as §1

[12] = system: purple nutsedge; experiment: Test B pre/postemergence purple nutsedge; assay type: in vivo, Cyperus rotundus
Summary of the method: as §1

[13] = system: corn; experiment: Test B pre/postemergence corn; assay type: in vivo, Zea mays
Summary of the method: as §1

[14] = system: giant foxtail; experiment: Test B pre/postemergence giant foxtail; assay type: in vivo, Setaria faberii
Summary of the method: as §1

[15] = system: velvetleaf; experiment: Test B pre/postemergence velvetleaf; assay type: in vivo, Abutilon theophrasti
Summary of the method: as §1

[16] = system: bedstraw; experiment: Test B pre/postemergence bedstraw; assay type: in vivo, Galium aparine; details: Postemergence; for Plant response rating, Bedstraw: scale 0 to 10, 0 is no effect, 10 is complete control; for Bedstraw plant response rating: scale of 0 to 10 where 0 is no effect and 10 is complete control
Summary of the method: as §1

[17] = Postemergence, Rate 500 g/ha, scale of 0 to 10 where 0 is no effect and 10 is complete control
[18] = Preemergence, Rate 62 g/ha, scale 0 to 10 (0 no effect, 10 complete control)
[19] = Preemergence, Rate 125 g/ha, scale of 0 to 10 where 0 is no effect and 10 is complete control
[20] = Preemergence, Rate 250 g/ha, scale 0 to 10, 0 is no effect, 10 is complete control
[21] = Preemergence, Rate 500 g/ha, scale 0 to 10, 0 is no effect, 10 is complete control
[22] = Postemergence (flood test), Rate 125 g/ha
[23] = Postemergence section (flood test species), Rate 500 g/ha
[24] = Rate 62 g/ha, Postemergence (flood test species)
[25] = flood test species, listed under Postemergence, Rate 250 g/ha
[26] = Postemergence section (flood test species), Rate 500 g/ha, scale of 0 to 10 where 0 is no effect and 10 is complete control
[27] = flood test species, listed under Postemergence, Rate 250 g/ha, scale 0 to 10, 0 is no effect, 10 is complete control
[28] = Postemergence, Rate 125 g/ha, scale 0 to 10, 0 is no effect, 10 is complete control
[29] = Postemergence, Rate 250 g/ha, scale 0 to 10, 0 is no effect, 10 is complete control
[30] = Rate 62 g/ha, Postemergence, scale of 0 to 10 where 0 is no effect and 10 is complete control
[31] = Preemergence, Rate 250 g/ha, scale of 0 to 10 where 0 is no effect and 10 is complete control

CSCCn1c(=O)on(C(=O)N(c2ccccc2)C(C)C)c1=O [Compound 419]
Wheat plant response rating [1, 17]: 0
Plant response rating, Wheat [1, 18]: 0
Plant response rating, Wheat [1, 19]: 0
Wheat plant response rating [1, 20]: 0
Wheat plant response rating [1, 21]: 0
Plant response rating, Barnyardgrass [2, 22]: 0
Barnyardgrass plant response rating [2, 23]: 0
Barnyardgrass plant response rating [2, 24]: 0
Plant response rating, Barnyardgrass [2, 25]: 0
Rice plant response rating [3, 26]: 2
Plant response rating, Rice [3, 27]: 0
S. Flatsedge plant response rating [4, 26]: 3
Plant response rating, S. Flatsedge [4, 27]: 0
Plant response rating, Cocklebur [5, 28]: 0
Plant response rating, Cocklebur [5, 29]: 0
Cocklebur plant response rating [5, 17]: 0
Plant response rating, Cocklebur [5, 18]: 0
Plant response rating, Cocklebur [5, 19]: 0
Cocklebur plant response rating [5, 20]: 0
Cocklebur plant response rating [5, 21]: 0
Cocklebur plant response rating [5, 30]: 0
Plant response rating, Ducksalad [6, 22]: 0
Ducksalad plant response rating [6, 23]: 0
Ducksalad plant response rating [6, 24]: 0
Plant response rating, Ducksalad [6, 25]: 0
Plant response rating, Morningglory [7, 29]: 5
Morningglory plant response rating [7, 17]: 5
Plant response rating, Morningglory [7, 18]: 0
Plant response rating, Morningglory [7, 19]: 0
Morningglory plant response rating [7, 20]: 1
Morningglory plant response rating [7, 21]: 2
Wild oats plant response rating [8, 17]: 0
Plant response rating, Wild oats [8, 18]: 0
Plant response rating, Wild oats [8, 19]: 0
Wild oats plant response rating [8, 20]: 0
Wild oats plant response rating [8, 21]: 2
Plant response rating, B. signalgrass [9, 28]: 0
Plant response rating, B. signalgrass [9, 29]: 0
B. signalgrass plant response rating [9, 17]: 2
Plant response rating, B. signalgrass [9, 18]: 0
Plant response rating, B. signalgrass [9, 19]: 0
B. signalgrass plant response rating [9, 31]: 2
B. signalgrass plant response rating ([9]; Preemergence, Rate 500 g/ha, scale of 0 to 10 where 0 is no effect and 10 is complete control): 8
B. signalgrass plant response rating [9, 30]: 0
Plant response rating, Crabgrass [10, 28]: 0
Plant response rating, Crabgrass [10, 29]: 0
Crabgrass plant response rating [10, 17]: 1
Plant response rating, Crabgrass [10, 18]: 0
Plant response rating, Crabgrass [10, 19]: 1
Crabgrass plant response rating [10, 20]: 4
Crabgrass plant response rating [10, 21]: 9
Crabgrass plant response rating [10, 30]: 0
Plant response rating, Blackgrass [11, 28]: 0
Plant response rating, Blackgrass [11, 29]: 0
Blackgrass plant response rating [11, 17]: 4
Plant response rating, Blackgrass [11, 18]: 0
Plant response rating, Blackgrass [11, 19]: 0
Blackgrass plant response rating [11, 31]: 0
Blackgrass plant response rating [11, 21]: 3
Blackgrass plant response rating [11, 30]: 0
Plant response rating, Nutsedge [12, 29]: 0
Nutsedge plant response rating [12, 17]: 0
Plant response rating, Nutsedge [12, 18]: 0
Plant response rating, Nutsedge [12, 19]: 0
Nutsedge plant response rating [12, 20]: 0
Nutsedge plant response rating [12, 21]: 0
Plant response rating, Corn [13, 28]: 0
Plant response rating, Corn [13, 29]: 0
Corn plant response rating [13, 17]: 0
Plant response rating, Corn [13, 18]: 0
Plant response rating, Corn [13, 19]: 0
Corn plant response rating [13, 20]: 0
Corn plant response rating [13, 21]: 0
Corn plant response rating [13, 30]: 0
Plant response rating, Giant foxtail [14, 28]: 0
Plant response rating, Giant foxtail [14, 29]: 1
Giant foxtail plant response rating [14, 17]: 6
Plant response rating, Giant foxtail [14, 18]: 0
Plant response rating, Giant foxtail [14, 19]: 1
Giant foxtail plant response rating [14, 20]: 2
Giant foxtail plant response rating [14, 21]: 5
Giant foxtail plant response rating [14, 30]: 0
Plant response rating, Velvetleaf [15, 29]: 0
Velvetleaf plant response rating [15, 17]: 2
Plant response rating, Velvetleaf [15, 18]: 0
Plant response rating, Velvetleaf [15, 19]: 0
Velvetleaf plant response rating [15, 20]: 1
Velvetleaf plant response rating [15, 21]: 4
Plant response rating, Bedstraw ([16]; Rate 125 g/ha): 0
Plant response rating, Bedstraw ([16]; Rate 250 g/ha): 0
Bedstraw plant response rating ([16]; Rate 500 g/ha): 0
Bedstraw plant response rating ([16]; Rate 62 g/ha): 0
